Measured values taken from patent publication US20260216194A1 (Cyrano Therapeutics, Inc., priority 2020, published 2026).

Experiments:
Type in all cases: in vivo, human
[1] = tested on: patient who had loss of taste and smell from COVID-19; assay: Side effects during intranasal theophylline treatment; details: 80 μg theophylline via two actuations from nasal spray device once per day, 3 months
Procedure: (§1) Theophylline was administered to a patient who had loss of taste and smell from COVID-19. A formulation containing 80 μg of theophylline was administered via two actuations from nasal spray device once per day. Prior to the initial administration of theophylline, a baseline smell test was performed. A follow-up smell test was performed 3 months after the initial administration. […] The patient's detection threshold (DT) and recognition threshold (RT) for pyridine (Pyr), nitrobenzene (NO2B), thiophene (Thio) and amyl acetate (AA) was determined before treatment (pre) and after treatment (3M). In all four odorant tests, the patient's detection threshold and recognition threshold improved. An improvement of 1 bottle unit means that a patient could detect and/or recognize an odorant that was 10 times lower in concentration, when compared to baseline. For example, the recognition threshold (RT) of AA improved by 8 bottle units, also equivalent to an improvement of 8 orders of magnitude. In this case, the patient could detect a concentration of AA that was 108 lower in concentration. Bottle unit numbers that are 5 or lower are considered to be in the range of normal.

[2] = tested on: patient diagnosed or previously diagnosed with COVID-19 and having at least partial smell or taste loss; assay: Example 1: intranasal theophylline formulation in a patient with smell or taste loss associated with COVID-19
Procedure: A patient diagnosed or previously diagnosed with COVID-19 and having at least partial smell or taste loss associated with COVID-19 is treated with an intranasally administered a formulation comprising theophylline, which is given once per day, in each naris, for about 30 days, 60 days, or 90 days.
Administration of the formulation produces an increase in the patient's sonic hedgehog levels or cyclic nucleotide levels within about 30 days, 60 days, or 90 days.

[3] = tested on: patient who had loss of taste and smell from COVID-19; assay: Psychophysical smell test, forced-choice three-stimuli stepwise-staircase technique (detection and recognition thresholds for four odors)
Source text: The Patient initially reported their sensory dysfunction as either loss of taste (i.e., flavor) and/or smell function. This subjective response was documented by objective psychophysical measurements of olfactory function administered to each patient by use of a forced-choice, three-stimuli, stepwise-staircase technique in a fixed, controlled design (1, 2). Efficacy of this technique and results of testing were previously documented in a double-blind clinical trial (2). Four odors were used; they were pyridine (dead-fish odor), nitrobenzene (bitter-almond odor), thiophene (petroleum-like odor) and amyl acetate (banana-oil odor). Detection thresholds (DT), and recognition thresholds (RT) values for each odor were determined as previously described (1, 2). Thresholds were converted into bottle units (BU) as previously described (2) and results reported as M of correct responses for each odor in each treatment group. References: (1) Henkin, R. I. Evaluation and treatment of human olfactory dysfunction, in Otolaryngology (English, G. M. Ed.), Lippincott, Philadelphia, 1993, Vol. 2, pp. 1-86. (2) Henkin, R. I., Schecter, P. J., Friedewald, W. T., DeMets, D. L., Raff, M. S. A double blind study of the effects of zinc sulfate on taste and smell dysfunction. Amer. J. Med. Sci. 1976; 272:285-299.
as §1

[4] = 3 months after initial administration, 80 μg theophylline intranasal once per day, baseline (Pre) 10, 5 or lower is normal
[5] = 3 months after initial administration, 80 μg theophylline intranasal once per day, baseline (Pre) 11, 5 or lower is normal
[6] = 3 months after initial administration, 80 μg theophylline intranasal once per day, baseline (Pre) 12, 5 or lower is normal

Cn1c(=O)c2[nH]cnc2n(C)c1=O [theophylline]
Side effects [1]: No side effects were reported
Patient's ability to taste and smell ([2]; intranasal once per day in each naris for about 30, 60 or 90 days): significant increase
Patient's sonic hedgehog levels or cyclic nucleotide levels ([2]; intranasal once per day in each naris, within about 30 days, 60 days, or 90 days): increase
Detection threshold (DT), thiophene (Thio) [3, 4]: 4 bottle units
Recognition threshold (RT), thiophene (Thio) [3, 4]: 4 bottle units
Detection threshold (DT), amyl acetate (AA) [3, 5]: 4 bottle units
Detection threshold (DT), nitrobenzene (NO2B) [3, 5]: 9 bottle units
Detection threshold (DT), pyridine (Pyr) [3, 5]: 7 bottle units
Recognition threshold (RT), pyridine (Pyr) [3, 5]: 7 bottle units
Recognition threshold (RT), amyl acetate (AA) [3, 6]: 4 bottle units
Recognition threshold (RT), nitrobenzene (NO2B) [3, 6]: 9 bottle units
Improvement of recognition threshold (RT) of AA ([3]; 3 months vs baseline, 1 bottle unit = 10 times lower concentration): 8 bottle units
Detection threshold and recognition threshold in all four odorant tests ([3]; 3 months vs baseline, pyridine, nitrobenzene, thiophene, amyl acetate): improved
